Source: patent EP0621779B1, “INDOMETHACIN LYSINATE FOR THERAPEUTIC USE IN OPHTHALMOLOGY” (JUNG, Jean, priority 1992, dated 1993)

Experiments:
[1] = Ocular passage / ocular bioavailability after instillation of eye drops; assay type: in vivo
Procedure: Les biodisponibilités oculaires des deux formes pharmaceutiques sont équivalentes : le passage obtenu avec la solution à 0,142 % d'indométacine (du lysinate d'indométacine) est similaire à celui obtenu avec la suspension à 1 % (INDOCID®). Cette dernière constatation permet d'affirmer que le passage des collyres à travers les différentes barrières oculaires s'effectue bien par la fraction soluble et non par endocytose de microparticules.
Il faut noter également qu'au temps de prélèvement de 2 h les concentrations d'indométacine mesurées dans l'oeil traité par la solution de lysinate d'indométacine à 0,142 % d'indométacine sont supérieures à celles mesurées dans l'oeil traité par la suspension à 1 % d'indométacine; cela peut être dû à une élimination plus rapide de la forme suspension par le fluide lacrymal en raison de l'irritation oculaire provoquée par la taille des particules.
Elle augmente ensuite régulièrement pour atteindre sa valeur maximale environ 30 minutes après l'instillation (3 à 5 % de la dose instillée) et diminue finalement.

[2] = Stability of the isolated salt (storage; dry heat sterilisation of the powder); assay type: physicochemical; details: poudre
Excerpt: Dans un premier temps, la stabilité du lysinate d'indométacine en fonction de la température a été prouvée et les conditions de température et de durée utilisées pour la stérilisation ont été définis. Dans un deuxième temps, une étude microbiologique a permis de vérifier l'efficacité de la méthode.

[3] = Solubility in solvents (physico-chemical characters); assay type: physicochemical
Excerpt: Les données des études spectrales (IR, UV, RNM) sont conformes à la structure définie.

Structure (SMILES) | concentration de l'indométacine dans l'humeur aqueuse ([1]; 10 minutes après l'instillation) | Tmax ([1]; in vivo, topical or ocular, humeur aqueuse, read-out: time after instillation to reach valeur maximale dans l'humeur aqueuse (converted)) [min] | stabilité dans le temps ([2]; conditions classiques de conservation) | stabilité à la stérilisation par la chaleur sèche ([2]; température supérieure à 170°C) | passage oculaire (biodisponibilité oculaire) ([1]; solution à 0,142 % d'indométacine, compared with suspension à 1 % (INDOCID®)) | concentrations d'indométacine mesurées dans l'oeil traité ([1]; temps de prélèvement de 2 h, solution à 0,142 % d'indométacine compared with suspension à 1 % d'indométacine) | solubilité ([3]; dans l'acétone) | solubilité ([3]; dans l'acétonitrile) | solubilité ([3]; dans l'eau) | solubilité ([3]; dans l'éthanol) | solubilité ([3]; dans l'éther) | solubilité ([3]; dans le chloroforme) | solubilité ([3]; dans le dichlorométhane) | solubilité ([3]; dans le méthanol)
COc1ccc2c(c1)c(CC(=O)O)c(C)n2C(=O)c1ccc(Cl)cc1 [indométacine, reference compound] | pratiquement nulle | ~30 | – | – | – | – | – | – | – | – | – | – | – | –
COc1ccc2c(c1)c(CC(=O)O)c(C)n2C(=O)c1ccc(Cl)cc1 [lysinate d'indométacine] | – | – | stables dans le temps | sans être dégradé | similaire | supérieures | pratiquement insoluble | totalement insoluble | soluble | totalement insoluble | totalement insoluble | pratiquement insoluble | pratiquement insoluble | soluble
